Tests used:
Assay in all cases: relative viability (nuclei count vs DMSO), 5 days (fraction); higher = more cells survive
NCI-H838 = system: NCI-H838
Outline: (§1)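 Nuclei were stained with Hoechst during a one-step fixation (final 0.05% Triton X-100, 1% formaldehyde, 1 ug/ml Hoechst) carried out 5 days after dosing, then counted on 4× images. The cells, lung cancer lines in 1536-well plates, had been dosed by pin tool the day after seeding with one drug alone or a fixed anchor-drug dose plus five library-drug doses (not always all listed) in √10 steps. Relative viability is the nuclei count in treated wells divided by that in vehicle wells, and each value is the median of duplicate plates.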

NCI-H1651 = system: NCI-H1651
Outline: as §1

RERF-LC-KJ = system: RERF-LC-KJ
Outline: as §1

SK-MES-1 = system: SK-MES-1
Outline: as §1

HCC-15 = system: HCC-15
Outline: as §1

BEN = system: BEN
Outline: as §1

NCI-H23 = system: NCI-H23
Outline: as §1

NCI-H520 = system: NCI-H520
Outline: as §1

H3255 = system: H3255
Outline: as §1

NCI-H1650 = system: NCI-H1650
Outline: as §1

NCI-H650 = system: NCI-H650
Outline: as §1

NCI-H1792 = system: NCI-H1792
Outline: as §1

NCI-H1993 = system: NCI-H1993
Outline: as §1

NCI-H1395 = system: NCI-H1395
Outline: as §1

NCI-H2009 = system: NCI-H2009
Outline: as §1

NCI-H1755 = system: NCI-H1755
Outline: as §1

SK-LU-1 = system: SK-LU-1
Outline: as §1

PC-3 [JPC-3] = system: PC-3 [JPC-3]
Outline: as §1

A-427 = system: A-427
Outline: as §1

NCI-H727 = system: NCI-H727
Outline: as §1

LC-2-ad = system: LC-2-ad
Outline: as §1

NCI-H2085 = system: NCI-H2085
Outline: as §1

NCI-H647 = system: NCI-H647
Outline: as §1

LCLC-97TM1 = system: LCLC-97TM1
Outline: as §1

NCI-H661 = system: NCI-H661
Outline: as §1

Cc1cn(-c2cc(NC(=O)c3ccc(C)c(Nc4nccc(-c5cccnc5)n4)c3)cc(C(F)(F)F)c2)cn1 [Nilotinib] + CS(=O)(=O)CCNCc1ccc(-c2ccc3ncnc(Nc4ccc(OCc5cccc(F)c5)c(Cl)c4)c3c2)o1 [Lapatinib] (partner 2 µM)
relative viability (NCI-H838; first compound 0.001 µM): 0.927 | relative viability (NCI-H838; first compound 0.003162 µM): 1.02 | relative viability (NCI-H838; first compound 0.01 µM): 0.925 | relative viability (NCI-H838; first compound 0.03162 µM): 0.817 | relative viability (NCI-H838; first compound 0.1 µM): 0.609 | relative viability (NCI-H1651; first compound 0.001 µM): 0.815 | relative viability (NCI-H1651; first compound 0.003162 µM): 0.803 | relative viability (NCI-H1651; first compound 0.01 µM): 1.06 | relative viability (NCI-H1651; first compound 0.03162 µM): 0.737 | relative viability (NCI-H1651; first compound 0.1 µM): 0.359 | relative viability (RERF-LC-KJ; first compound 0.001 µM): 0.874 | relative viability (RERF-LC-KJ; first compound 0.003162 µM): 0.986 | relative viability (RERF-LC-KJ; first compound 0.01 µM): 0.977 | relative viability (RERF-LC-KJ; first compound 0.03162 µM): 0.882 | relative viability (RERF-LC-KJ; first compound 0.1 µM): 0.888 | relative viability (SK-MES-1; first compound 0.003162 µM): 0.663 | relative viability (SK-MES-1; first compound 0.01 µM): 0.665 | relative viability (SK-MES-1; first compound 0.03162 µM): 0.541 | relative viability (SK-MES-1; first compound 0.1 µM): 0.557 | relative viability (HCC-15; first compound 0.001 µM): 0.835 | relative viability (HCC-15; first compound 0.003162 µM): 1.07 | relative viability (HCC-15; first compound 0.01 µM): 1.05 | relative viability (HCC-15; first compound 0.03162 µM): 0.663 | relative viability (HCC-15; first compound 0.1 µM): 0.443 | relative viability (BEN; first compound 0.001 µM): 0.759 | relative viability (BEN; first compound 0.003162 µM): 0.74 | relative viability (BEN; first compound 0.01 µM): 0.757 | relative viability (BEN; first compound 0.03162 µM): 0.518 | relative viability (BEN; first compound 0.1 µM): 0.508 | relative viability (NCI-H23; first compound 0.001 µM): 1.01 | relative viability (NCI-H23; first compound 0.003162 µM): 1.13 | relative viability (NCI-H23; first compound 0.01 µM): 1.4 | relative viability (NCI-H23; first compound 0.03162 µM): 0.87 | relative viability (NCI-H23; first compound 0.1 µM): 0.704 | relative viability (NCI-H520; first compound 0.001 µM): 0.678 | relative viability (NCI-H520; first compound 0.01 µM): 0.927 | relative viability (NCI-H520; first compound 0.03162 µM): 0.707 | relative viability (NCI-H520; first compound 0.1 µM): 0.383 | relative viability (H3255; first compound 0.001 µM): 0.259 | relative viability (H3255; first compound 0.003162 µM): 0.224 | relative viability (H3255; first compound 0.01 µM): 0.236 | relative viability (H3255; first compound 0.03162 µM): 0.24 | relative viability (H3255; first compound 0.1 µM): 0.217 | relative viability (NCI-H1650; first compound 0.001 µM): 0.851 | relative viability (NCI-H1650; first compound 0.003162 µM): 0.931 | relative viability (NCI-H1650; first compound 0.01 µM): 0.917 | relative viability (NCI-H1650; first compound 0.03162 µM): 0.668 | relative viability (NCI-H1650; first compound 0.1 µM): 0.424 | relative viability (NCI-H650; first compound 0.001 µM): 0.897 | relative viability (NCI-H650; first compound 0.003162 µM): 0.65 | relative viability (NCI-H650; first compound 0.01 µM): 0.918 | relative viability (NCI-H650; first compound 0.03162 µM): 0.851 | relative viability (NCI-H650; first compound 0.1 µM): 0.682 | relative viability (NCI-H1792; first compound 0.001 µM): 0.899 | relative viability (NCI-H1792; first compound 0.01 µM): 1.12 | relative viability (NCI-H1792; first compound 0.1 µM): 1.24 | relative viability (NCI-H1993; first compound 0.001 µM): 0.797 | relative viability (NCI-H1993; first compound 0.003162 µM): 0.863 | relative viability (NCI-H1993; first compound 0.01 µM): 0.77 | relative viability (NCI-H1993; first compound 0.03162 µM): 0.874 | relative viability (NCI-H1993; first compound 0.1 µM): 0.651 | relative viability (NCI-H1395; first compound 0.001 µM): 1.02 | relative viability (NCI-H1395; first compound 0.003162 µM): 0.575 | relative viability (NCI-H1395; first compound 0.01 µM): 0.9 | relative viability (NCI-H1395; first compound 0.03162 µM): 1.14 | relative viability (NCI-H1395; first compound 0.1 µM): 0.596 | relative viability (NCI-H2009; first compound 0.001 µM): 0.788 | relative viability (NCI-H2009; first compound 0.003162 µM): 1.1 | relative viability (NCI-H2009; first compound 0.01 µM): 1.08 | relative viability (NCI-H2009; first compound 0.03162 µM): 1.01 | relative viability (NCI-H2009; first compound 0.1 µM): 0.191 | relative viability (NCI-H1755; first compound 0.001 µM): 1.02 | relative viability (NCI-H1755; first compound 0.003162 µM): 1.35 | relative viability (NCI-H1755; first compound 0.01 µM): 1.43 | relative viability (NCI-H1755; first compound 0.03162 µM): 0.986 | relative viability (NCI-H1755; first compound 0.1 µM): 0.551 | relative viability (SK-LU-1; first compound 0.001 µM): 0.769 | relative viability (SK-LU-1; first compound 0.003162 µM): 0.855 | relative viability (SK-LU-1; first compound 0.01 µM): 1.08 | relative viability (SK-LU-1; first compound 0.03162 µM): 0.558 | relative viability (SK-LU-1; first compound 0.1 µM): 0.6 | relative viability (PC-3 [JPC-3]; first compound 0.001 µM): 0.44 | relative viability (PC-3 [JPC-3]; first compound 0.003162 µM): 0.537 | relative viability (PC-3 [JPC-3]; first compound 0.01 µM): 0.467 | relative viability (PC-3 [JPC-3]; first compound 0.03162 µM): 0.542 | relative viability (PC-3 [JPC-3]; first compound 0.1 µM): 0.282 | relative viability (A-427; first compound 0.001 µM): 1.05 | relative viability (A-427; first compound 0.01 µM): 1.13 | relative viability (A-427; first compound 0.03162 µM): 1.08 | relative viability (A-427; first compound 0.1 µM): 0.211 | relative viability (NCI-H727; first compound 0.001 µM): 0.858 | relative viability (NCI-H727; first compound 0.01 µM): 0.985 | relative viability (NCI-H727; first compound 0.03162 µM): 0.591 | relative viability (NCI-H727; first compound 0.1 µM): 0.368 | relative viability (LC-2-ad; first compound 0.001 µM): 0.901 | relative viability (LC-2-ad; first compound 0.003162 µM): 1.29 | relative viability (LC-2-ad; first compound 0.01 µM): 1.05 | relative viability (LC-2-ad; first compound 0.03162 µM): 0.894 | relative viability (LC-2-ad; first compound 0.1 µM): 0.293 | relative viability (NCI-H2085; first compound 0.001 µM): 0.822 | relative viability (NCI-H2085; first compound 0.003162 µM): 0.817 | relative viability (NCI-H2085; first compound 0.01 µM): 0.748 | relative viability (NCI-H2085; first compound 0.03162 µM): 0.66 | relative viability (NCI-H2085; first compound 0.1 µM): 0.599 | relative viability (NCI-H647; first compound 0.001 µM): 0.978 | relative viability (NCI-H647; first compound 0.003162 µM): 1.42 | relative viability (NCI-H647; first compound 0.03162 µM): 0.672 | relative viability (NCI-H647; first compound 0.1 µM): 0.723 | relative viability (LCLC-97TM1; first compound 0.001 µM): 0.777 | relative viability (LCLC-97TM1; first compound 0.003162 µM): 1.05 | relative viability (LCLC-97TM1; first compound 0.01 µM): 1.12 | relative viability (LCLC-97TM1; first compound 0.03162 µM): 1.16 | relative viability (LCLC-97TM1; first compound 0.1 µM): 0.268 | relative viability (NCI-H661; first compound 0.001 µM): 0.446 | relative viability (NCI-H661; first compound 0.003162 µM): 0.445 | relative viability (NCI-H661; first compound 0.01 µM): 0.549 | relative viability (NCI-H661; first compound 0.03162 µM): 0.42 | relative viability (NCI-H661; first compound 0.1 µM): 0.436

Source: the supplement of paper PMC10307832
